# Laboratory results reported in ChEMBL document CHEMBL1156346, “Cytotoxic and novel compounds from Solanum indicum” (J Nat Prod, 2001).
# System: OVCAR-3
# Test: Cytotoxicity against human OVCAR-3 cells
# Format: functional, cell-based
smiles,measurement,value
C=C(C)[C@@H]1CC[C@@]2(C1)C(C)=CC(=O)C[C@H]2C [SOLAVETIVONE],IC50,100 µM
